Assay results as given in ChEMBL document CHEMBL4765227, “Hit to lead optimization of a series of N-[4-(1,3-benzothiazol-2-yl)phenyl]acetamides as monoacylglycerol lipase inhibitors with potential anticancer activity” (Eur J Med Chem, 2016).

Experiments:
Assay type in all cases: functional
Settings in all cases: read-out: GI
UO-31 = test: Growth inhibition of human UO-31 cells at 10 uM incubated for 48 hrs by sulforhodamine B assay relative to control
PC-3 = test: Growth inhibition of human PC-3 cells at 10 uM incubated for 48 hrs by sulforhodamine B assay relative to control
SK-OV-3 = test: Growth inhibition of human SK-OV-3 cells at 10 uM incubated for 48 hrs by sulforhodamine B assay relative to control
MDA-MB-231 = test: Growth inhibition of human MDA-MB-231 cells at 10 uM incubated for 48 hrs by sulforhodamine B assay relative to control
HCT-15 = test: Growth inhibition of human HCT-15 cells at 10 uM incubated for 48 hrs by sulforhodamine B assay relative to control
HT-29 = test: Growth inhibition of human HT-29 cells at 10 uM incubated for 48 hrs by sulforhodamine B assay relative to control
OVCAR-5 = test: Growth inhibition of human OVCAR-5 cells at 10 uM incubated for 48 hrs by sulforhodamine B assay relative to control
SR = test: Growth inhibition of human SR cells at 10 uM incubated for 48 hrs by sulforhodamine B assay relative to control
SW-620 = test: Growth inhibition of human SW-620 cells at 10 uM incubated for 48 hrs by sulforhodamine B assay relative to control
ACHN = test: Growth inhibition of human ACHN cells at 10 uM incubated for 48 hrs by sulforhodamine B assay relative to control
OVCAR-4 = test: Growth inhibition of human OVCAR-4 cells at 10 uM incubated for 48 hrs by sulforhodamine B assay relative to control
LOX IMVI = test: Growth inhibition of human LOX IMVI cells at 10 uM incubated for 48 hrs by sulforhodamine B assay relative to control
HL-60(TB) = test: Growth inhibition of human HL-60(TB) cells at 10 uM incubated for 48 hrs by sulforhodamine B assay relative to control
T47D = test: Growth inhibition of human T47D cells at 10 uM incubated for 48 hrs by sulforhodamine B assay relative to control
DU-145 = test: Growth inhibition of human DU-145 cells at 10 uM incubated for 48 hrs by sulforhodamine B assay relative to control
SN12C = test: Growth inhibition of human SN12C cells at 10 uM incubated for 48 hrs by sulforhodamine B assay relative to control
TK-10 = test: Growth inhibition of human TK-10 cells at 10 uM incubated for 48 hrs by sulforhodamine B assay relative to control
M14 = test: Growth inhibition of human M14 cells at 10 uM incubated for 48 hrs by sulforhodamine B assay relative to control
RPMI-8226 = test: Growth inhibition of human RPMI-8226 cells at 10 uM incubated for 48 hrs by sulforhodamine B assay relative to control
HCT-116 = test: Growth inhibition of human HCT-116 cells at 10 uM incubated for 48 hrs by sulforhodamine B assay relative to control
SF-539 = test: Growth inhibition of human SF-539 cells at 10 uM incubated for 48 hrs by sulforhodamine B assay relative to control
UACC-257 = test: Growth inhibition of human UACC-257 cells at 10 uM incubated for 48 hrs by sulforhodamine B assay relative to control
RXF 393 = test: Growth inhibition of human RXF 393 cells at 10 uM incubated for 48 hrs by sulforhodamine B assay relative to control
NCI-H460 = test: Growth inhibition of human NCI-H460 cells at 10 uM incubated for 48 hrs by sulforhodamine B assay relative to control
UACC-62 = test: Growth inhibition of human UACC-62 cells at 10 uM incubated for 48 hrs by sulforhodamine B assay relative to control
SF-268 = test: Growth inhibition of human SF-268 cells at 10 uM incubated for 48 hrs by sulforhodamine B assay relative to control
HCC 2998 = test: Growth inhibition of human HCC 2998 cells at 10 uM incubated for 48 hrs by sulforhodamine B assay relative to control
MDA-MB-435 = test: Growth inhibition of human MDA-MB-435 cells at 10 uM incubated for 48 hrs by sulforhodamine B assay relative to control
COLO 205 = test: Growth inhibition of human COLO 205 cells at 10 uM incubated for 48 hrs by sulforhodamine B assay relative to control
SF-295 = test: Growth inhibition of human SF-295 cells at 10 uM incubated for 48 hrs by sulforhodamine B assay relative to control
OVCAR-8 = test: Growth inhibition of human OVCAR-8 cells at 10 uM incubated for 48 hrs by sulforhodamine B assay relative to control
Hs-578T = test: Growth inhibition of human Hs-578T cells at 10 uM incubated for 48 hrs by sulforhodamine B assay relative to control
A549 = test: Growth inhibition of human A549/ATCC cells at 10 uM incubated for 48 hrs by sulforhodamine B assay relative to control
NCI-H23 = test: Growth inhibition of human NCI-H23 cells at 10 uM incubated for 48 hrs by sulforhodamine B assay relative to control
SNB-19 = test: Growth inhibition of human SNB-19 cells at 10 uM incubated for 48 hrs by sulforhodamine B assay relative to control
NCI-H226 = test: Growth inhibition of human NCI-H226 cells at 10 uM incubated for 48 hrs by sulforhodamine B assay relative to control
NCI-H522 = test: Growth inhibition of human NCI-H522 cells at 10 uM incubated for 48 hrs by sulforhodamine B assay relative to control
CCRF-CEM = test: Growth inhibition of human CCRF-CEM cells at 10 uM incubated for 48 hrs by sulforhodamine B assay relative to control
MDA-MB-468 = test: Growth inhibition of human MDA-MB-468 cells at 10 uM incubated for 48 hrs by sulforhodamine B assay relative to control
U-251 = test: Growth inhibition of human U-251 cells at 10 uM incubated for 48 hrs by sulforhodamine B assay relative to control
NCI-H322M = test: Growth inhibition of human NCI-H322M cells at 10 uM incubated for 48 hrs by sulforhodamine B assay relative to control
SK-MEL-5 = test: Growth inhibition of human SK-MEL-5 cells at 10 uM incubated for 48 hrs by sulforhodamine B assay relative to control
HOP-92 = test: Growth inhibition of human HOP-92 cells at 10 uM incubated for 48 hrs by sulforhodamine B assay relative to control
KM12 = test: Growth inhibition of human KM12 cells at 10 uM incubated for 48 hrs by sulforhodamine B assay relative to control

Compound `O=C(Cn1c2ccccc2c2ccccc21)Nc1ccc(-c2nc3ccccc3s2)cc1` has an inhibition of growth at 10 µM (UO-31) of 12.8%, an inhibition of growth at 10 µM (PC-3) of -4.16% and an inhibition of growth at 10 µM (SK-OV-3) of -7.77%. The inhibition of growth at 10 µM (MDA-MB-231) was 4.37%, the inhibition of growth at 10 µM (HCT-15) was -0.3% and the inhibition of growth at 10 µM (HT-29) was -6.06%. For the same compound, the inhibition of growth at 10 µM (OVCAR-5) was 0.62%, the inhibition of growth at 10 µM (SR) was 15.7% and the inhibition of growth at 10 µM (SW-620) was -2.44%. It also gave an inhibition of growth at 10 µM (ACHN) of -4.15%, an inhibition of growth at 10 µM (OVCAR-4) of -2.83% and an inhibition of growth at 10 µM (LOX IMVI) of 8.68%. It also gave an inhibition of growth at 10 µM (HL-60(TB)) of -3.61%, an inhibition of growth at 10 µM (T47D) of 15.5% and an inhibition of growth at 10 µM (DU-145) of -2.93%. It also gave an inhibition of growth at 10 µM (SN12C) of -1.32%, an inhibition of growth at 10 µM (TK-10) of -1.97% and an inhibition of growth at 10 µM (M14) of -14%. For the same compound, the inhibition of growth at 10 µM (RPMI-8226) was -18%, the inhibition of growth at 10 µM (HCT-116) was -7.02% and the inhibition of growth at 10 µM (SF-539) was 4.12%. For the same compound, the inhibition of growth at 10 µM (UACC-257) was -1.24%, the inhibition of growth at 10 µM (RXF 393) was -10.8% and the inhibition of growth at 10 µM (NCI-H460) was -1.93%. It also gave an inhibition of growth at 10 µM (UACC-62) of 4.66%, an inhibition of growth at 10 µM (SF-268) of 6.55% and an inhibition of growth at 10 µM (HCC 2998) of 0.28%. It also gave an inhibition of growth at 10 µM (MDA-MB-435) of -1.43%, an inhibition of growth at 10 µM (COLO 205) of -8.95% and an inhibition of growth at 10 µM (SF-295) of 3.61%. The inhibition of growth at 10 µM (OVCAR-8) was -2.86%, the inhibition of growth at 10 µM (Hs-578T) was -14.2% and the inhibition of growth at 10 µM (A549) was 0.89%. For the same compound, the inhibition of growth at 10 µM (NCI-H23) was 6.54%, the inhibition of growth at 10 µM (SNB-19) was -4.51% and the inhibition of growth at 10 µM (NCI-H226) was 1.21%. It also gave an inhibition of growth at 10 µM (NCI-H522) of 3.42%, an inhibition of growth at 10 µM (CCRF-CEM) of -5.65% and an inhibition of growth at 10 µM (MDA-MB-468) of 83.4%. For the same compound, the inhibition of growth at 10 µM (U-251) was 6.01%, the inhibition of growth at 10 µM (NCI-H322M) was -5.2% and the inhibition of growth at 10 µM (SK-MEL-5) was 6.47%. For the same compound, the inhibition of growth at 10 µM (HOP-92) was -7.01% and the inhibition of growth at 10 µM (KM12) was 0.15%.
